Data from PubChem BioAssay AID1963970 (Molecular Pharmacology Branch, DTP, NCI, 2024).
Several values for one entry are separate records, joined by “and”; a condition that tells them apart may be missing. Equal entries are not always repeated.

Tested on: 931267-113-T-J1-PDC multicell spheroid viability
Experiment: Anticancer human tumor 931267-113-T-J1-PDC patient-derived colon adenocarcinoma cell line growth inhibition [PI3K]
Conditions: for viability, T/C: stronger effect = lower value
Procedure, shortened: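 Tumor cells grown as multi-cell spheroids with HUVEC endothelial cells and MSC fibroblast-like stroma were treated with targeted agents combined with inavolisib, alpelisib, duvelisib or copanlisib. Doses fell in half-log steps from near clinical Cmax, else from 10 microM. Viability was measured.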

[1] = curve of first compound, second compound 0.0316 µM
[2] = curve of first compound, second compound 0.1 µM
[3] = curve of first compound, second compound 0.316 µM
[4] = curve of first compound, second compound 1 µM
[5] = second compound 0.0316 µM, first compound 0.0316 µM
[6] = second compound 0.0316 µM, first compound 0.1 µM
[7] = second compound 0.0316 µM, first compound 0.316 µM
[8] = second compound 0.0316 µM, first compound 1 µM
[9] = second compound 0.0316 µM, first compound 3.16 µM
[10] = second compound 0.0316 µM, first compound 10 µM
[11] = second compound 0.1 µM, first compound 0.0316 µM
[12] = second compound 0.1 µM, first compound 0.1 µM
[13] = second compound 0.1 µM, first compound 0.316 µM
[14] = second compound 0.1 µM, first compound 1 µM
[15] = second compound 0.1 µM, first compound 3.16 µM
[16] = second compound 0.1 µM, first compound 10 µM
[17] = second compound 0.316 µM, first compound 0.0316 µM
[18] = second compound 0.316 µM, first compound 0.1 µM
[19] = second compound 0.316 µM, first compound 0.316 µM
[20] = second compound 0.316 µM, first compound 1 µM
[21] = second compound 0.316 µM, first compound 3.16 µM
[22] = second compound 0.316 µM, first compound 10 µM
[23] = second compound 1 µM, first compound 0.0316 µM
[24] = second compound 1 µM, first compound 0.1 µM
[25] = second compound 1 µM, first compound 0.316 µM
[26] = second compound 1 µM, first compound 1 µM
[27] = second compound 1 µM, first compound 3.16 µM
[28] = second compound 1 µM, first compound 10 µM
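Also: viability read 7 days after compound addition.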

Q: What does the source list for `CC1(C)CCC(Nc2ncc(C(F)(F)F)c(-c3c[nH]c4c(P(C)(C)=O)c(C#N)ccc34)n2)CN1` (stereo not drawn) + COc1c(OCCCN2CCOCC2)ccc2c3n(c(=NC(=O)c4cnc(N)nc4)nc12)CCN3?
A: IC50 (curve of first compound, second compound 0.00316 µM): > 10 µM; IC50 (curve of first compound, second compound 0.01 µM): > 10 µM; IC50 [1]: > 10 µM; IC50 [2]: 4.29 µM; IC50 [3]: < 0.0316 µM; IC50 [4]: < 0.0316 µM; viability, T/C (second compound 0.00316 µM, first compound 0.0316 µM): 92.5%; viability, T/C (second compound 0.00316 µM, first compound 0.1 µM): 94.2%; viability, T/C (second compound 0.00316 µM, first compound 0.316 µM): 91.6%; viability, T/C (second compound 0.00316 µM, first compound 1 µM): 81.2%; viability, T/C (second compound 0.00316 µM, first compound 3.16 µM): 76.5%; viability, T/C (second compound 0.00316 µM, first compound 10 µM): 69.3%; viability, T/C (second compound 0.01 µM, first compound 0.0316 µM): 97.3%; viability, T/C (second compound 0.01 µM, first compound 0.1 µM): 89.5%; viability, T/C (second compound 0.01 µM, first compound 0.316 µM): 81.5%; viability, T/C (second compound 0.01 µM, first compound 1 µM): 83.5%; viability, T/C (second compound 0.01 µM, first compound 3.16 µM): 77.3%; viability, T/C (second compound 0.01 µM, first compound 10 µM): 61.5%; viability, T/C [5]: 81.6%; viability, T/C [6]: 78%; viability, T/C [7]: 77.6%; viability, T/C [8]: 67.1%; viability, T/C [9]: 70.6%; viability, T/C [10]: 55.2%; viability, T/C [11]: 64.5%; viability, T/C [12]: 66.1%; viability, T/C [13]: 60%; viability, T/C [14]: 58.2%; viability, T/C [15]: 55.5%; viability, T/C [16]: 39.8%; viability, T/C [17]: 47.3%; viability, T/C [18]: 44.8%; viability, T/C [19]: 41.2%; viability, T/C [20]: 41.5%; viability, T/C [21]: 40.6%; viability, T/C [22]: 33.5%; viability, T/C [23]: 33.8%; viability, T/C [24]: 30.1%; viability, T/C [25]: 30.2%; viability, T/C [26]: 28.3%; viability, T/C [27]: 30.5%; viability, T/C [28]: 20.9%

Q: Which results are given for `CC(Cn1ccc(-c2ccc(C#N)c(Cl)c2)n1)NC(=O)c1cc(C(C)O)[nH]n1` (stereo not drawn)?
A: viability, T/C (compound 0.0316 µM): 109% and 95.2% and 110%; viability, T/C (compound 0.1 µM): 107% and 94.8% and 102%; viability, T/C (compound 0.316 µM): 109% and 108% and 101%; viability, T/C (compound 1 µM): 117% and 108% and 106%; viability, T/C (compound 3.16 µM): 98.7% and 110% and 107%; viability, T/C (compound 10 µM): 103% and 102% and 108%; IC50 (curve of compound): > 10 µM

Q: How did the IC50 [1] turn out when `Cn1nccc1Nc1nccc(-c2ccn(C(CO)c3ccc(Cl)c(F)c3)c(=O)c2)n1` (stereo not drawn) + Cc1nc(NC(=O)N2CCCC2C(N)=O)sc1-c1ccnc(C(C)(C)C(F)(F)F)c1 was run?
A: Its IC50 is 4.76 µM.

Q: And the IC50 [2]?
A: Its IC50 is 3.57 µM.

Q: And the IC50 [3]?
A: Its IC50 is 2.38 µM.

Q: What about the IC50 [4] of the same compound?
A: The IC50 was 1.47 µM.

Q: And the IC50 (curve of first compound, second compound 3.16 µM)?
A: Its IC50 is 0.65 µM.

Q: What about the IC50 (curve of first compound, second compound 10 µM) of the same compound?
A: The IC50 was 0.143 µM.

Q: What about the viability, T/C [5] of the same compound?
A: Its viability, T/C is 94.7%.

Q: And the viability, T/C [6]?
A: Its viability, T/C is 90.4%.

Q: What about the viability, T/C [7] of the same compound?
A: Its viability, T/C is 92.4%.

Q: What about the viability, T/C [8] of the same compound?
A: The viability, T/C was 77.2%.

Q: And the viability, T/C [9]?
A: Its viability, T/C is 57.5%.

Q: And the viability, T/C [10]?
A: The viability, T/C was 37.3%.

Q: And the viability, T/C [11]?
A: The viability, T/C was 102%.

Q: What about the viability, T/C [12] of the same compound?
A: The viability, T/C was 88.4%.

Q: And the viability, T/C [13]?
A: Its viability, T/C is 82.8%.

Q: What about the viability, T/C [14] of the same compound?
A: The viability, T/C was 68.9%.

Q: And the viability, T/C [15]?
A: The viability, T/C was 52.9%.

Q: What about the viability, T/C [16] of the same compound?
A: Its viability, T/C is 31.7%.

Q: And the viability, T/C [17]?
A: The viability, T/C was 90.3%.

Q: What about the viability, T/C [18] of the same compound?
A: The viability, T/C was 92.2%.

Q: What about the viability, T/C [19] of the same compound?
A: The viability, T/C was 77.9%.

Q: What about the viability, T/C [20] of the same compound?
A: The viability, T/C was 68%.

Q: What about the viability, T/C [21] of the same compound?
A: The viability, T/C was 43.9%.

Q: What about the viability, T/C [22] of the same compound?
A: Its viability, T/C is 27.5%.

Q: And the viability, T/C [23]?
A: Its viability, T/C is 86.4%.

Q: What about the viability, T/C [24] of the same compound?
A: Its viability, T/C is 78.5%.

Q: What about the viability, T/C [25] of the same compound?
A: Its viability, T/C is 71.4%.

Q: And the viability, T/C [26]?
A: The viability, T/C was 54%.

Q: What about the viability, T/C [27] of the same compound?
A: Its viability, T/C is 39.5%.

Q: And the viability, T/C [28]?
A: Its viability, T/C is 19.1%.

Q: And the viability, T/C (second compound 3.16 µM, first compound 0.0316 µM)?
A: The viability, T/C was 74.9%.

Q: What about the viability, T/C (second compound 3.16 µM, first compound 0.1 µM) of the same compound?
A: Its viability, T/C is 65.2%.

Q: And the viability, T/C (second compound 3.16 µM, first compound 0.316 µM)?
A: Its viability, T/C is 58.1%.

Q: And the viability, T/C (second compound 3.16 µM, first compound 1 µM)?
A: The viability, T/C was 43.6%.

Q: And the viability, T/C (second compound 3.16 µM, first compound 3.16 µM)?
A: Its viability, T/C is 36.3%.

Q: And the viability, T/C (second compound 3.16 µM, first compound 10 µM)?
A: Its viability, T/C is 15.2%.

Q: And the viability, T/C (second compound 10 µM, first compound 0.0316 µM)?
A: Its viability, T/C is 57%.

Q: And the viability, T/C (second compound 10 µM, first compound 0.1 µM)?
A: Its viability, T/C is 50.7%.

Q: What about the viability, T/C (second compound 10 µM, first compound 0.316 µM) of the same compound?
A: The viability, T/C was 45.2%.

Q: And the viability, T/C (second compound 10 µM, first compound 1 µM)?
A: Its viability, T/C is 39.4%.

Q: What about the viability, T/C (second compound 10 µM, first compound 3.16 µM) of the same compound?
A: The viability, T/C was 26.4%.

Q: And the viability, T/C (second compound 10 µM, first compound 10 µM)?
A: Its viability, T/C is 14.3%.

Q: `CC(C)NCC(C(=O)N1CCN(c2ncnc3c2C(C)CC3O)CC1)c1ccc(Cl)cc1` (stereo not drawn) was tested. Which viability, T/C (compound 0.0316 µM) did it give?
A: The viability, T/C was 99.5% [middle of 4 runs].

Q: And the viability, T/C (compound 0.1 µM)?
A: Its viability, T/C is 95.4% [middle of 4 runs].

Q: And the viability, T/C (compound 0.316 µM)?
A: Its viability, T/C is 98.5% [middle of 4 runs].

Q: What about the viability, T/C (compound 1 µM) of the same compound?
A: The viability, T/C was 99.6% [middle of 4 runs].

Q: What about the viability, T/C (compound 3.16 µM) of the same compound?
A: Its viability, T/C is 89.5% [middle of 4 runs].

Q: What about the viability, T/C (compound 10 µM) of the same compound?
A: The viability, T/C was 80.2% [middle of 4 runs].

Q: And the IC50 (curve of compound)?
A: The IC50 was > 10 µM.
